SMILES strings stand for the structures. pIC50: −log10 of the molar value.

For orientation: pIC50 means the negative decadic logarithm of the IC50, by convention in mol/L.

Holding throughout (assay type): functional, cell-based
In one test the test system is A2780. As to the kind of experiment: Antiproliferative activity against human A2780 cells after 96 hrs by CellTiter-Glo luminescent cell viability assay. The note with it: A2780, 96 h. (In ATP-based viability assays light output follows the ATP content of the culture.)
For the next test, the system named is BT-549. As to the kind of experiment: Antiproliferative activity against human BT549 cells after 96 hrs by CellTiter-Glo luminescent cell viability assay. The note with it: BT-549, 96 h.
For the next test, the system named is DU-145. In words: Antiproliferative activity against human DU145 cells after 96 hrs by CellTiter-Glo luminescent cell viability assay. The note with it: DU-145, 96 h.
The subject of another test is NCI-H460. As to the kind of experiment: Antiproliferative activity against human NCI-H460 cells after 96 hrs by CellTiter-Glo luminescent cell viability assay. The note with it: NCI-H460, 96 h.
A further test has as its system HCC 2998. As to the kind of experiment: Antiproliferative activity against human HCC2998 cells after 96 hrs by CellTiter-Glo luminescent cell viability assay. The note with it: HCC 2998, 96 h.

In turn, `C=C(CO)[C@H]1Cc2cc3c(cc2O1)OC[C@H]1c2cc4c(cc2O[C@@H]31)OCO4` gave a pIC50 in the test with A2780 of under 4.26.
Same read-out and setting: the value for `C=C(C)[C@H]1Cc2cc3c(cc2O1)OC[C@H]1c2cc4c(cc2O[C@@H]31)OCO4` [EMOROIDOCARPAN] was 4.58.
Still for that read-out and setting: for `COc1c(-c2ccc3c(c2)OCO3)c(=O)oc2c3c(ccc12)OC(C)(C)C=C3` [PONGAVILLEANINE] the value was 5.02.
`C=C(C)[C@H]1Cc2c(ccc3c2O[C@@H]2COc4cc(OC)c(OC)cc4[C@]2(O)C3=O)O1` [ROTENOLONE]: the pIC50 is 6.02 in the test with A2780; 5.80 in the test with BT-549; 5.57 in the test on DU-145; 5.70 in the test with NCI-H460; 5.54 in the test with HCC 2998.

For the origin of these results see ChEMBL document CHEMBL1221401, “Antiproliferative compounds from Pongamiopsis pervilleana from the Madagascar Dry Forest” (J Nat Prod, 2010).
